{
  "source": "patent US8796323B2",
  "about": "“Defensin-like molecules as novel antimicrobial agents” (University of Maryland, Baltimore, priority 2010, dated 2014)",
  "tested_on": "Staphylococcus aureus ATCC 29213",
  "experiment": "96-well turbidimetric antibacterial activity assay of HNP1, with or without Lipid II synthesis inhibitors",
  "format": "cell-based",
  "protocol": "The antibacterial activity of HNP1 against Staphylococcus aureus ATCC 29213 was carried out in a 96-well turbidimetric assay essentially as described in Ericksen, B., et al., 2005, “Antibacterial activity and specificity of the six human {alpha}-defensins.” Lipid II levels in S. aureus were manipulated by the addition of three different inhibitors of cell wall synthesis: bacitracin (250 μg/ml), D-cycloserine (64 μg/ml) and fosfomycine (250 μg/ml). Bacterial cultures were pretreated with these compounds for 30 min under shaking at 37° C. […] Bacterial growth was monitored for 12 hours and data were analyzed as described.\nTo examine whether the observed interaction between HNP1 and Lipid II is functionally relevant in the environment of the membrane, the inventors determined the ability of HNP1 to kill S. aureus with altered levels of Lipid II. Three different inhibitors of cell wall synthesis, fosfomycine, D-cycloserine, and bacitracin, were used to reduce the lipid II levels in S. aureus cells. Bacitracin binds directly to undecaprenyl pyrophosphate, the portion of lipid II that remains in the membrane once GlcNAc-MurNAc is polymerized, and prevents its use in subsequent cycles of lipid II synthesis. Fosfomycine is an inhibitor of MurA, the enzyme responsible for the first step in peptidoglycan synthesis. D-Cycloserine inhibits both alanine racemase and D-Ala-D-Ala ligase, two enzymes required for the synthesis of the D-Ala-D-Ala dipeptide of lipid II. All three inhibitors thus block the synthesis of lipid II (Lunde, C. S., et al., 2009, “Telavancin disrupts the functional integrity of the bacterial membrane through targeted interaction with the cell wall precursor lipid II,” Antimicrob Agents Chemother 53:3375-3383.) S. aureus cells were exposed to each of the Lipid II synthesis inhibitors for 30 min and subsequently exposed to HNP1 at concentrations ranging from 256 to 1 μg/ml for 15 min (FIG. 4).\nSurvival curves of S. aureus ATCC 29213 exposed to HNP1 at concentrations varying two-fold from 1 to 256 μg/ml. […] Points scored as zero survival could not be plotted.",
  "data": [
    {"substance": "HNP1: α-defensin Human Neutrophil Peptide 1, chemically synthesized and folded", "values": [
      {"measurement": "killing of S. aureus", "setting": "15 min exposure to HNP1", "result": "efficiently killed S. aureus"},
      {"measurement": "killing of S. aureus by HNP-1 after pre-treatment with Lipid II synthesis inhibitors, 2 hours exposure", "setting": "HNP-1 exposure 2 hours, data not shown", "result": "no difference in bacterial killing"},
      {"measurement": "killing of S. aureus by HNP1 after pre-treatment with Lipid II synthesis inhibitors", "setting": "fosfomycine, D-cycloserine, bacitracin 30 min pre-treatment, HNP1 15 min", "result": "attenuated killing of S. aureus by HNP1 markedly"}
    ]}
  ]
}
